Reference: patent US20150015931A1, “ELECTROWETTING FLUIDS” (Merck Patent GmbH, priority 2012, published 2015)

How the values were obtained:
[1] = Absorbance of the saturated dye solution at 5 micron thickness (Beer-Lambert law, UV-vis); assay type: physicochemical; conditions: in decane; for Absorbance (theoretical), at 5 micron thickness: Table 8
Experimental: (§1) The absorbance is measured using a Hitachi UV3310 UV-vis spectrophotometer.

[2] = Solubility testing: saturation concentration of dye in non-polar solvent; conditions: for Saturation concentration (%): in decane
Experimental: A typical solubility test consists of one or more dyes dissolved in a suitable non-polar (hydrophobic) solvent, for example decane, at a concentration of 20% by weight for each dye. Samples are first vortex mixed for approximately 3 minutes and sonicated at 50° C. br 30 mins. They are then stirred for approximately 16 hours to ensure complete saturation. After stirring, samples are left to stand at room temperature for 2 hours before filtering through a 200 nm PTFE filter to give a saturated solution of dye in solvent.
The saturation concentrations and/or absorbance data for cells of varying thickness can be derived using the Beer-Lambert law:
Where A is absorbance (arbitrary unit) e=Molar extinction coefficient, c=Concentration (mol/l), l=path length (cm).
as §1

[3] = at the wavelength printed in the row, Table 5
[4] = at the wavelength printed in the row
[5] = at the wavelength printed in the row, Table 6b

SMILES: Cc1ccccc1/N=N/c1ccc(/N=N/c2c(O)ccc3ccccc23)c(C)c1 [Solvent Red 24, reference compound]
- Absorbance at wavelength, at 5 micron thickness [1, 3]: 0.1579
- Saturation concentration (%) ([2]; Table 5): 0.6%

SMILES: CCCCc1ccc(/N=N/c2ccc(N(CCCC)CCCC)cc2)cc1 [Dye 14]
- Saturation wt % in decane ([2]; Table 4 Yellow Dyes): 9.95 wt %

SMILES: CCCCCNc1ccc(NCCCCC)c2c1C(=O)c1ccccc1C2=O [Oil Blue N, reference compound]
- Absorbance at wavelength, at 5 micron thickness ([1]; 646 nm, Table 6a): 0.0938
- Absorbance at wavelength, at 5 micron thickness [1, 3]: 0.114
- Absorbance (theoretical), at 5 micron thickness [1, 4]: 0.0938
- Dye saturation concentration % in Decane as solvent [2]: 0.62%
- Dye saturation concentration % in (Decane/dye 2 as solvent) [2]: 1.34%
- Dye saturation concentration % in (Decane/dye 12 as solvent) [2]: 1.14%
- Saturation concentration (%) ([2]; Table 5): 0.657%
- Saturation concentration (%) ([2]; Table 6a): 0.657%
- Saturation concentration (%) ([2]; Table 8): 0.66%

SMILES: CCCCCCCCCCCCN(CCCCCCCCCCCC)c1ccc(/N=N/c2cc(OCC(CC)CCCC)c(/N=N/c3ccc([N+](=O)[O-])cc3[N+](=O)[O-])cc2OCC(CC)CCCC)c(C)c1 (stereo not shown) [Dye 1e, 4-((E)-(4-((E)-(2,4-Dinitrophenyl)diazenyl)-2,5-bis(2-ethylhexyloxy)phenyl)diazenyl)-3-methyl-N,N-di-n-dodecylaniline]
- Saturation wt % in decane ([2]; Table 1 Blue/Black Dyes): 5.17 wt %

SMILES: CCCCCCCCCCCCCCCCCCN(CCCCCCCCCCCCCCCCCC)c1cc(NC(C)=O)c(/N=N/c2c(C#N)cc([N+](=O)[O-])cc2C#N)cc1OC [Dye 8, N-(2-((2,6-Dicyano-4-nitrophenyl)diazenyl)-5-(dioctadecylamino)-4-methoxyphenyl)acetamide]
- Dye saturation concentration % in Decane as solvent [2]: 0.003%
- Dye saturation concentration % in (Decane/dye 2 as solvent) [2]: 0.18%
- Dye saturation concentration % in (Decane/dye 12 as solvent) [2]: 0.18%
- Saturation wt % in decane ([2]; Table 2 Cyan Dyes): 0.003 wt %

SMILES: CCCCC(CC)COc1cc(/N=N/c2ccc([N+](=O)[O-])cc2[N+](=O)[O-])c(OCC(CC)CCCC)cc1/N=N/c1ccc(N(CCC(C)CC(C)(C)C)CCC(C)CC(C)(C)C)cc1C (stereo not shown) [Dye 1c, 4-((E)-(4-((E)-(2,4-Dinitrophenyl)diazenyl)-2,5-bis(2-ethylhexyloxy)phenyl)diazenyl)-3-methyl-N,N-d i-(3,5,5-trimethylhexyl)aniline]
- Saturation wt % in decane ([2]; Table 1 Blue/Black Dyes): 3.53 wt %

SMILES: CCCCC(CC)COc1cc(/N=N/c2ccc([N+](=O)[O-])cc2[N+](=O)[O-])c(OCC(CC)CCCC)cc1/N=N/c1ccc(N(CC(CC)CCCC)CC(CC)CCCC)cc1C (stereo not shown) [Dye 1b, 4-((E)-(4-((E)-(2,4-Dinitrophenyl)diazenyl)-2,5-bis(2-ethylhexyloxy)phenyl)diazenyl)-3-methyl-N,N-di-(2-ethylhexyl)aniline]
- Saturation wt % in decane ([2]; Table 1 Blue/Black Dyes): 17.19 wt %

SMILES: CCCCCCCCN(CCCCCCCC)c1ccc(/N=N/c2ccc([N+](=O)[O-])cc2)c(C)c1 [Dye 15, (E)-3-Methyl-4-((4-nitrophenyl)diazenyl)-N,N-dioctylaniline]
- Absorbance at wavelength, at 5 micron thickness [1, 3]: 2.765
- Saturation wt % in decane ([2]; Table 4 Yellow Dyes): 10.50 wt %
- Saturation concentration (%) ([2]; Table 5): 8.58%

SMILES: CCCCCCCCCCCCCCc1ccc(/N=N/c2c(C)c(C#N)c(=O)n(CC(CC)CCCC)c2O)cc1 (stereo not shown) [Dye 12, (E)-1-(2-Ethylhexyl)-6-hydroxy-4-methyl-2-oxo-5-((4-tetradecylphenyl)diazenyl)-1,2-dihydropyridine-3-carbonitrile]
- Absorbance at wavelength, at 5 micron thickness [1, 5]: 0.332
- Saturation wt % in decane ([2]; Table 4 Yellow Dyes): 1.03 wt %
- Saturation concentration (%) ([2]; Table 6b): 1.03%

SMILES: Cc1ccc(C)c(N=Nc2cc(C)c(N=Nc3c(O)ccc4ccccc34)cc2C)c1 [Oil Red O, reference compound]
- Absorbance at wavelength, at 5 micron thickness [1, 3]: 0.2594
- Dye saturation concentration % in Decane as solvent [2]: 1.17%
- Dye saturation concentration % in (Decane/dye 2 as solvent) [2]: 1.91%
- Dye saturation concentration % in (Decane/dye 12 as solvent) [2]: 1.49%
- Saturation concentration (%) ([2]; Table 5): 1.615%

SMILES: CCCCCCCCCCCCN(CCC(C)CC(C)(C)C)c1ccc(/N=N/c2cc(OCC(CC)CCCC)c(/N=N/c3ccc([N+](=O)[O-])cc3[N+](=O)[O-])cc2OCC(CC)CCCC)c(C)c1 (stereo not shown) [Dye 1g, 4-((E)-(4-((E)-(2,4-Dinitrophenyl)diazenyl)-2,5-bis(2-ethylhexyloxy)phenyl)diazenyl)-3-methyl-N-dodecyl-N-(3,5,5-trimethylhexyl)aniline]
- Saturation wt % in decane ([2]; Table 1 Blue/Black Dyes): 16.67 wt %

SMILES: CCCCCCCCCCCCCCc1ccc(/N=N/c2c(C)cc(=O)n(CC(CC)CCCC)c2O)cc1 (stereo not shown) [Dye 13, (E)-1-(2-ethylhexyl)-6-hydroxy-4-methyl-5-((4-tetradecylphenyl)diazenyl)pyridin-2(1H)-one]
- Absorbance at wavelength, at 5 micron thickness [1, 5]: 0.915
- Saturation wt % in decane ([2]; Table 4 Yellow Dyes): 3.72 wt %
- Saturation concentration (%) ([2]; Table 6b): 3.72%

SMILES: CCCCNc1ccc(NCCCC)c2c1C(=O)c1ccccc1C2=O [Solvent Blue 35, reference compound]
- Absorbance at wavelength, at 5 micron thickness ([1]; 646 nm, Table 6a): 0.0531
- Absorbance at wavelength, at 5 micron thickness [1, 3]: 0.044
- Absorbance (theoretical), at 5 micron thickness [1, 4]: 0.0531
- Dye saturation concentration % in Decane as solvent [2]: 0.33%
- Dye saturation concentration % in (Decane/dye 2 as solvent) [2]: 0.69%
- Dye saturation concentration % in (Decane/dye 12 as solvent) [2]: 0.62%
- Saturation concentration (%) ([2]; Table 5): 0.385%
- Saturation concentration (%) ([2]; Table 6a): 0.385%
- Saturation concentration (%) ([2]; Table 8): 0.385%

SMILES: CCCCCCCCN(CCCCCCCC)c1ccc(/N=N/c2cc(OCC(CC)CCCC)c(/N=N/c3ccc([N+](=O)[O-])cc3[N+](=O)[O-])cc2OCC(CC)CCCC)c(C)c1 (stereo not shown) [Dye 1a, 4-((E)-(4-((E)-(2,4-Dinitrophenyl)diazenyl)-2,5-bis(2-ethylhexyloxy)phenyl)diazenyl)-3-methyl-N,N-dioctylaniline]
- Absorbance (theoretical), at 5 um thickness ([1]; at the wavelength printed in the row, Table 7): 0.188
- Saturation wt % in decane ([2]; Table 1 Blue/Black Dyes): 100 wt %
- Saturation concentration (%) ([2]; Table 7): 1.000%

SMILES: CCCCCCCCCCN(CCCCCCCCCC)c1ccc(/N=N/c2cc(OCC(CC)CCCC)c(/N=N/c3ccc([N+](=O)[O-])cc3[N+](=O)[O-])cc2OCC(CC)CCCC)c(C)c1 (stereo not shown) [Dye 1d, 4-((E)-(4-((E)-(2,4-Dinitrophenyl)diazenyl)-2,5-bis(2-ethylhexyloxy)phenyl)diazenyl)-3-methyl-N,N-di-n-decylaniline]
- Saturation wt % in decane ([2]; Table 1 Blue/Black Dyes): 2.39 wt %

SMILES: CCCCCCCCN(CCCCCCCC)c1ccc(/N=N/c2snc(C)c2C#N)c(NC(C)=O)c1 [Dye 11, N-(2-((4-Cyano-3-methylisothiazol-5-yl)diazenyl)-5-(dioctylamino)phenyl)acetamide]
- Dye saturation concentration % in Decane as solvent [2]: 0.19%
- Dye saturation concentration % in (Decane/dye 2 as solvent) [2]: 0.62%
- Dye saturation concentration % in (Decane/dye 12 as solvent) [2]: 0.41%
- Saturation wt % in decane ([2]; Table 3 Magenta Dyes): 0.19 wt %

SMILES: CCCCCCCCCCCCCCN(CCCCCCCCCCCCCC)c1ccc(/N=N/c2cc(OCC(CC)CCCC)c(/N=N/c3ccc([N+](=O)[O-])cc3[N+](=O)[O-])cc2OCC(CC)CCCC)c(C)c1 (stereo not shown) [Dye 1f, 4-((E)-(4-((E)-(2,4-Dinitrophenyl)diazenyl)-2,5-bis(2-ethylhexyloxy)phenyl)diazenyl)-3-methyl-N,N-di-n-tetradecylaniline]
- Saturation wt % in decane ([2]; Table 1 Blue/Black Dyes): 15.2 wt %
